In the assay the target is T1, human IKK-2 (rhIKK-2 homodimer) (Homo sapiens, UniProt O14920).
T1 construct: FLAG (DYKDDDDKD) (C); made in house; host or cells: insect cells (baculovirus, pFastBac)
T1 sequence (O14920 1-756): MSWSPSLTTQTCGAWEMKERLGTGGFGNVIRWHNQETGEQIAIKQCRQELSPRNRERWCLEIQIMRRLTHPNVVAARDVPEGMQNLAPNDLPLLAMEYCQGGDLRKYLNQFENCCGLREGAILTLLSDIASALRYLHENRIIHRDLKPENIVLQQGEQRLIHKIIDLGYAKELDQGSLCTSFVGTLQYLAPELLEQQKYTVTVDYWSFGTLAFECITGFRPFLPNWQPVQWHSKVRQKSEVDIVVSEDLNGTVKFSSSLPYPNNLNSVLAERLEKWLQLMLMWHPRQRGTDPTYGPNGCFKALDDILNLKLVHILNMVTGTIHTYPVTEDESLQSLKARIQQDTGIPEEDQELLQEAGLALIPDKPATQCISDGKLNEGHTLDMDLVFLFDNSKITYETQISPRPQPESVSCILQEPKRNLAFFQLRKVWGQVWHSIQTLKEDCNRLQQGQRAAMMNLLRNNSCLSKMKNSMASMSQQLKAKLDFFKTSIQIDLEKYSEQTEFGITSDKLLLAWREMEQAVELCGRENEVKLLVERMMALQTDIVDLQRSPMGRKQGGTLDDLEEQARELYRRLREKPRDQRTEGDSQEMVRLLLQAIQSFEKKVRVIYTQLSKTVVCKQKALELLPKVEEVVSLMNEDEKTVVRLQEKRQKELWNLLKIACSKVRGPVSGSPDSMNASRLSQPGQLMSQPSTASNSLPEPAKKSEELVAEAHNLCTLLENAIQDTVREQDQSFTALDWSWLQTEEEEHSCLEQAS
Briefly: IKK-2 Resin Enzyme Assay (Human IKK-2 Enzyme Assay). The class given is biochemical. Conditions: human IKK-2, resin enzyme assay; read-out: IC50 (μM) hIKK-2. The procedure, abridged: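 C-terminally FLAG-tagged human IKK-2 homodimer, baculovirus-expressed in insect cells and anti-FLAG purified. Reaction mix: 5 μM biotinylated IκBα peptide (Ser32/Ser36 region), 1 μM ATP with [γ-33P]ATP, 2 mM MgCl2, 2 mM MnCl2, 10 mM NaF, 1 mM DTT, 25 mM HEPES pH 7.6. Incubated 30 min at 25 °C; IC50 derived.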

With `N#CCOc1cccc(-c2ccc(-n3cc(NC(N)=O)c(C(N)=O)n3)cc2C(F)(F)F)c1` [Example 237, 4-[(aminocarbonyl)amino]-1-[3′-(cyanomethoxy)-2-(trifluoromethyl)-1,1′-biphenyl-4-yl]-1H-pyrazole-3-carboxamide], the half-maximal inhibitory concentration (IC50) (usually the concentration at which inhibition is half-maximal) was determined as 3.9 µM. On to `NC(=O)Nc1cn(-c2ccc(S(=O)(=O)c3ccccn3)cc2)nc1C(N)=O` [Example 286, 1-(3-carbamoyl-1-(4-(pyridin-2-ylsulfonyl)phenyl)-1H-pyrazol-4-yl)urea], for which the IC50 worked out at 0.663 µM.

In the case of `NC(=O)Nc1cn(-c2ccc3ccccc3c2)nc1C(N)=O` [Example 219, 4-[(aminocarbonyl)amino]-1-(2-naphthyl)-1H-pyrazole-3-carboxamide], the IC50 is 0.175 µM. Turning to `N#CCOc1ccccc1-c1ccc(-n2cc(NC(N)=O)c(C(N)=O)n2)cc1Cl` [Example 224, 4-[(aminocarbonyl)amino]-1-[2-chloro-2′-(cyanomethoxy)-1,1′-biphenyl-4-yl]-1H-pyrazole-3-carboxamide], the half-maximal inhibitory concentration (IC50) turned out to be 0.327 µM. For `NC(=O)Nc1cn(-c2ccc(-c3ccccc3F)cc2)nc1C(N)=O` [Example 30, 4-[(aminocarbonyl)amino]-1-(2′-fluoro-1,1′-biphenyl-4-yl)-1H-pyrazole-3-carboxamide], the IC50 is 3 µM.

In the case of `Cc1cc(-c2ccccc2O)ccc1-n1cc(NC(N)=O)c(C(N)=O)n1` [Example 235, 4-[(aminocarbonyl)amino]-1-(2′-hydroxy-3-methyl-1,1′-biphenyl-4-yl)-1H-pyrazole-3-carboxamide], the IC50 was found to be 13.2 µM. In the case of `NC(=O)Nc1cn(-c2ccc([S+]([O-])C3CCCC3)cc2)nc1C(N)=O` (stereo not drawn) [Example 283, 1-(3-carbamoyl-1-(4-(cyclopentylsulfinyl)phenyl)-1H-pyrazol-4-yl)urea] it was 0.431 µM; in that of `Cc1cc(-n2cc(NC(N)=O)c(C(N)=O)n2)ccc1Sc1ccc(F)cc1` [Example 297, 1-[4-(4-fluoro-phenylsulfanyl)-3-methyl-phenyl]-4-ureido-1H-pyrazole-3-carboxylic acid amide], 1.94 µM. In the case of `Cc1cccc(-c2cccc(-n3cc(NC(N)=O)c(C(N)=O)n3)c2)c1` [Example 340, 4-[(aminocarbonyl)amino]-1-(3′-methyl-1,1′-biphenyl-3-yl)-1H-pyrazole-3-carboxamide], the IC50 is over 20 µM. With `NC(=O)Nc1cn(-c2ccc(-c3cccc(OCc4ccncc4)c3)cc2)nc1C(N)=O` [Example 171, 4-[(aminocarbonyl)amino]-1-[3′-(pyridin-4-ylmethoxy)-1,1′-biphenyl-4-yl]-1H-pyrazole-3-carboxamide], the IC50 was 6.84 µM.

As to `NC(=O)Nc1cn(-c2ccc(-c3ccc(F)cc3)cc2)nc1C(N)=O` [Example 25, 4-[(aminocarbonyl)amino]-1-(4′-fluoro-1,1′-biphenyl-4-yl)-1H-pyrazole-3-carboxamide], the IC50 was found to be 1.55 µM. As for `NC(=O)Nc1cn(-c2ccc(-c3cccc(O)c3)c(C(F)(F)F)c2)nc1C(N)=O` [Example 233, 4-[(aminocarbonyl)amino]-1-[3′-hydroxy-2-(trifluoromethyl)-1,1′-biphenyl-4-yl]-1H-pyrazole-3-carboxamide], the IC50 came to 0.375 µM.

`NC(=O)Nc1cn(-c2cccc(-c3ccc(F)c(F)c3)c2)nc1C(N)=O` [Example 349, 4-[(aminocarbonyl)amino]-1-(3′,4′-difluoro-1,1′-biphenyl-3-yl)-1H-pyrazole-3-carboxamide]: the IC50 is over 20 µM. For the compound `Cc1cc(-n2cc(NC(N)=O)c(C(N)=O)n2)ccc1-c1cccc(O)c1` [Example 239, 1-(3′-hydroxy-2-methyl-biphenyl-4-yl)-4-ureido-1H-pyrazole-3-carboxylic acid amide], the concentration for half-maximal inhibition (IC50) amounted to 0.161 µM. In the case of `NC(=O)Nc1cn(-c2cccc(-c3ccc(C(=O)O)cc3)c2)nc1C(N)=O` [Example 58, 3′-{3-(aminocarbonyl)-4-[(aminocarbonyl)amino]-1H-pyrazol-1-yl}-1,1′-biphenyl-4-carboxylic acid] it was 2.81 µM. On to `NC(=O)Nc1cn(-c2cccc(-c3ccc(C(=O)NCC(=O)O)cc3)c2)nc1C(N)=O` [Example 85, N-[(3′-{3-(aminocarbonyl)-4-[(aminocarbonyl)amino]-1H-pyrazol-1-yl}-1,1′-biphenyl-4-yl)carbonyl]glycine], for which the half-maximal inhibitory concentration (IC50) is 0.58 µM. Turning to `NCc1ccc(-c2cccc(-n3cc(NC(N)=O)c(C(N)=O)n3)c2)cc1` [Example 52, 4-[(aminocarbonyl)amino]-1-[4′-(aminomethyl)-1,1′-biphenyl-3-yl]-1H-pyrazole-3-carboxamide], the IC50 stood at 4.86 µM. `NC(=O)Nc1cn(-c2ccc(C(=O)N3CCOCC3)cc2)nc1C(N)=O` [Example 9, 4-[(aminocarbonyl)amino]-1-[4-(morpholin-4-yl-carbonyl)phenyl]-1H-pyrazole-3-carboxamide]: the 50% inhibitory concentration (IC50) worked out at 1.43 µM. Take `NC(=O)Nc1cn(-c2ccc(-c3cc(F)ccc3OCc3ncco3)cc2)nc1C(N)=O` [Example 255, 4-[(aminocarbonyl)amino]-1-[5′-fluoro-2′-(1,3-oxazol-2-ylmethoxy)-1,1′-biphenyl-4-yl]-1H-pyrazole-3-carboxamide]: the 50% inhibitory concentration (IC50) turned out to be 0.762 µM. For the compound `Cc1cc(-c2ccc(-n3cc(NC(N)=O)c(C(N)=O)n3)cc2)ccc1F` [Example 109, 4-[(aminocarbonyl)amino]-1-(4′-fluoro-3′-methyl-1,1′-biphenyl-4-yl)-1H-pyrazole-3-carboxamide], the IC50 was 5.52 µM. With `COC(=O)c1ccc(-c2ccc(-n3cc(NC(N)=O)c(C(N)=O)n3)cc2)c(N)c1` [Example 29, methyl 2-amino-4′-{3-(aminocarbonyl)-4-[(aminocarbonyl)amino]-1H-pyrazol-1-yl}-1,1′-biphenyl-4-carboxylate], the IC50 stood at 0.53 µM. In the case of `NC(=O)Nc1cn(-c2ccc3c(c2)OCO3)nc1C(N)=O` [Example 213, 4-[(aminocarbonyl)amino]-1-(1,3-benzodioxol-5-yl)-1H-pyrazole-3-carboxamide], the IC50 is 3.91 µM. Turning to `Cc1ccc(-n2cc(NC(N)=O)c(C(N)=O)n2)cc1` [Example 18, 4-[(aminocarbonyl)amino]-1-(4-methylphenyl)-1H-pyrazole-3-carboxamide], the IC50 was 0.3 µM. In the case of `COc1cccc(-c2cccc(-n3cc(NC(N)=O)c(C(N)=O)n3)c2)c1` [Example 343, 4-[(aminocarbonyl)amino]-1-(3′-methoxy-1,1′-biphenyl-3-yl)-1H-pyrazole-3-carboxamide] it was 5.18 µM; in that of `NC(=O)Nc1cn(-c2ccc([S+]([O-])c3ccccn3)cc2)nc1C(N)=O` (stereo not drawn) [Example 284, 1-(3-carbamoyl-1-(4-(pyridin-2-ylsulfinyl)phenyl)-1H-pyrazol-4-yl)urea], 0.986 µM.

Take `CC(C)Cc1ccc(-c2ccc(-n3cc(C(N)=O)c(NC(N)=O)n3)cc2)cc1` [Example 127]: the IC50 is over 20 µM.

For the compound `N#CCOc1cccc(-c2ccc(-n3cc(NC(N)=O)c(C(N)=O)n3)cc2F)c1` [Example 227, 4-[(aminocarbonyl)amino]-1-[3′-(cyanomethoxy)-2-fluoro-1,1′-biphenyl-4-yl]-1H-pyrazole-3-carboxamide], the half-maximal inhibitory concentration (IC50) stood at 1.53 µM. For `NC(=O)Nc1cn(-c2ccc(Sc3ccncc3)cc2)nc1C(N)=O` [Example 206, 1-(3-carbamoyl-1-(4-(pyridin-4-ylthio)phenyl)-1H-pyrazol-4-yl)urea], the IC50 worked out at 0.0514 µM. In the case of `N#CCOc1cccc(-c2ccc(-n3cc(NC(N)=O)c(C(N)=O)n3)cc2Cl)c1` [Example 220, 4-[(aminocarbonyl)amino]-1-[2-chloro-3′-(cyanomethoxy)-1,1′-biphenyl-4-yl]-1H-pyrazole-3-carboxamide], the IC50 worked out at 1.57 µM. As to `NC(=O)Nc1nn(-c2ccc(-c3ccc(Cl)cc3Cl)cc2)cc1C(N)=O` [Example 134, 4-[(aminocarbonyl)amino]-1-(2′,4′-dichloro-1,1′-biphenyl-4-yl)-1-pyrazole-3-carboxamide], the IC50 amounted to 3.84 µM. Consider `NC(=O)Nc1cn(-c2cccc(-c3ccnc(Cl)c3)c2)nc1C(N)=O` [Example 13, 4-[(aminocarbonyl)amino]-1-[3-(2-chloropyridin-4-yl)phenyl]-1H-pyrazole-3-carboxamide], for which the half-maximal inhibitory concentration (IC50) was 0.38 µM. In the case of `NC(=O)Nc1cn(-c2cccc(Sc3ccccc3F)c2)nc1C(N)=O` [Example 198, 1-(1-(3-(2-fluorophenylthio)phenyl)-3-carbamoyl-1H-pyrazol-4-yl)urea] it was 6.52 µM; in that of `CC(C#N)Oc1ccc(F)cc1-c1ccc(-n2cc(NC(N)=O)c(C(N)=O)n2)cc1` (stereo not drawn) [Example 180, 4-[(aminocarbonyl)amino]-1-[2′-(1-cyanoethoxy)-5′-fluoro-1,1′-biphenyl-4-yl]-1H-pyrazole-3-carboxamide], 0.228 µM.

The values above are taken from patent US20050197338A1, “Substituted pyrazole urea compounds for the treatment of inflammation” (priority 2003, published 2005).
